Holding throughout (assay): biochemical
The target of one experiment is T1, SIK3 (Homo sapiens, UniProt Q9Y2K2).
T1 construct: purchased SignalChem S12-11G-100
A digest of the protocol:
(§1)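 Radiometric assay: SIK1, SIK2 or SIK3 phosphorylates AMARA peptide using unlabelled plus [^33P]-γ-ATP, reaction started by ATP addition. Stopped with 150 mM phosphoric acid, filter-harvested and washed; incorporated ^33P counted by scintillation. Controls: 1% DMSO and 10 μM staurosporine final.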

In a further experiment the target is T2, SIK1 (Homo sapiens, UniProt P57059).
T2 construct: purchased Carna Biosciences 02-131
T2 sequence (P57059 whole entry): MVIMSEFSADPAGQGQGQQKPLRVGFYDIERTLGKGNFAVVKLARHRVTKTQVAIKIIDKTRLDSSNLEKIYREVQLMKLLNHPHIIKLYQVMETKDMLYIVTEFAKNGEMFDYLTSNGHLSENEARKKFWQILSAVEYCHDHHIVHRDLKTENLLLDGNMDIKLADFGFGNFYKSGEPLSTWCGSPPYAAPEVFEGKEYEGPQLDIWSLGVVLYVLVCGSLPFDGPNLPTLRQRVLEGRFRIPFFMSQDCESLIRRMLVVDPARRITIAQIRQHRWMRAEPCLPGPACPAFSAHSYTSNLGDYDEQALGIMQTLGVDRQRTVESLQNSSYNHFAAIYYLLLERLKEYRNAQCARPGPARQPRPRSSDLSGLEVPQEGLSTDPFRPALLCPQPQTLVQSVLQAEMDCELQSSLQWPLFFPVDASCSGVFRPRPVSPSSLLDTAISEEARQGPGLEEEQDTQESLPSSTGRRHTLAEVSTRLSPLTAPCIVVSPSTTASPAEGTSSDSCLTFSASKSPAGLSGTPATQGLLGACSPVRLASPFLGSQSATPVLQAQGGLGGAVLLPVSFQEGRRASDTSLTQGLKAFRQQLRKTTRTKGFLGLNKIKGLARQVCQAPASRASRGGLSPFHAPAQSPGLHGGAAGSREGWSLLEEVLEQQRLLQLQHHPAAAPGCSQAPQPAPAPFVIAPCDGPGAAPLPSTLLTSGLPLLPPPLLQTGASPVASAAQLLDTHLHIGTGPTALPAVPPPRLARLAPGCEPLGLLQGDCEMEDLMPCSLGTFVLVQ
The following applies: 33P radioactive SIK kinase assay, AMARA peptide, 10 μM ATP; read-out: SIK1 IC50. Summed up: as §1

The target in the next experiment is T3, SIK2 (Homo sapiens, UniProt Q9H0K1).
T3 construct: purchased ThermoFisher Scientific PV4792
T3 sequence (Q9H0K1 whole entry): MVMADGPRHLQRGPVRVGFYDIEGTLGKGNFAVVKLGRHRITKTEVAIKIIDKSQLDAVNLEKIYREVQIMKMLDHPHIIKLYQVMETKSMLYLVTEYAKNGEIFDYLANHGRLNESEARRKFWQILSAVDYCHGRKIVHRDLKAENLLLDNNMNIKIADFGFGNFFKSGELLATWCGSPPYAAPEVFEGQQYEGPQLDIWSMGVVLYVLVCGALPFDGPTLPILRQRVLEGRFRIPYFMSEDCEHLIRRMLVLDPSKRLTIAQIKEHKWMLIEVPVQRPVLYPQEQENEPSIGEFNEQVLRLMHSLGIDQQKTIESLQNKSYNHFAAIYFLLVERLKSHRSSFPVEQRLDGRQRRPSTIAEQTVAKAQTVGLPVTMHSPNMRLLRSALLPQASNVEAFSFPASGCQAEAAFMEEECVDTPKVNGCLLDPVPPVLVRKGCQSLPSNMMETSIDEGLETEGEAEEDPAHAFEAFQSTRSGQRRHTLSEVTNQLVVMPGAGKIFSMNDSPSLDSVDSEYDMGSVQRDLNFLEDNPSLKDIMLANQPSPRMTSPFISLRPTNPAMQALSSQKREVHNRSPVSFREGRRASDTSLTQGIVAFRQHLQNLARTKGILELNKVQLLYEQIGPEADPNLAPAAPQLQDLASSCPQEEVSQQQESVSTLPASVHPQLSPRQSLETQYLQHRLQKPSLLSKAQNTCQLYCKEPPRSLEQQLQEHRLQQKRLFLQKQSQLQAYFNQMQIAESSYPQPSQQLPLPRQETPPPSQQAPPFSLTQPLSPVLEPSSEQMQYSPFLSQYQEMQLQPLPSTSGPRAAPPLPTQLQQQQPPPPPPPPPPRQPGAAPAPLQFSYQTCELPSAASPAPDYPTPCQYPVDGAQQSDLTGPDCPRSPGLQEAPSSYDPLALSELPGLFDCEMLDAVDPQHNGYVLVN
Conditions: 33P radioactive SIK kinase assay, AMARA peptide, 10 μM ATP. A digest of the protocol:
as §1

These results are taken from patent publication US12065443B2, “Compounds and pharmaceutical compositions thereof for the treatment of diseases” (priority 2017, dated 2024).

pIC50: −log10 of the molar value.

T1 sequence (Q9Y2K2 whole entry): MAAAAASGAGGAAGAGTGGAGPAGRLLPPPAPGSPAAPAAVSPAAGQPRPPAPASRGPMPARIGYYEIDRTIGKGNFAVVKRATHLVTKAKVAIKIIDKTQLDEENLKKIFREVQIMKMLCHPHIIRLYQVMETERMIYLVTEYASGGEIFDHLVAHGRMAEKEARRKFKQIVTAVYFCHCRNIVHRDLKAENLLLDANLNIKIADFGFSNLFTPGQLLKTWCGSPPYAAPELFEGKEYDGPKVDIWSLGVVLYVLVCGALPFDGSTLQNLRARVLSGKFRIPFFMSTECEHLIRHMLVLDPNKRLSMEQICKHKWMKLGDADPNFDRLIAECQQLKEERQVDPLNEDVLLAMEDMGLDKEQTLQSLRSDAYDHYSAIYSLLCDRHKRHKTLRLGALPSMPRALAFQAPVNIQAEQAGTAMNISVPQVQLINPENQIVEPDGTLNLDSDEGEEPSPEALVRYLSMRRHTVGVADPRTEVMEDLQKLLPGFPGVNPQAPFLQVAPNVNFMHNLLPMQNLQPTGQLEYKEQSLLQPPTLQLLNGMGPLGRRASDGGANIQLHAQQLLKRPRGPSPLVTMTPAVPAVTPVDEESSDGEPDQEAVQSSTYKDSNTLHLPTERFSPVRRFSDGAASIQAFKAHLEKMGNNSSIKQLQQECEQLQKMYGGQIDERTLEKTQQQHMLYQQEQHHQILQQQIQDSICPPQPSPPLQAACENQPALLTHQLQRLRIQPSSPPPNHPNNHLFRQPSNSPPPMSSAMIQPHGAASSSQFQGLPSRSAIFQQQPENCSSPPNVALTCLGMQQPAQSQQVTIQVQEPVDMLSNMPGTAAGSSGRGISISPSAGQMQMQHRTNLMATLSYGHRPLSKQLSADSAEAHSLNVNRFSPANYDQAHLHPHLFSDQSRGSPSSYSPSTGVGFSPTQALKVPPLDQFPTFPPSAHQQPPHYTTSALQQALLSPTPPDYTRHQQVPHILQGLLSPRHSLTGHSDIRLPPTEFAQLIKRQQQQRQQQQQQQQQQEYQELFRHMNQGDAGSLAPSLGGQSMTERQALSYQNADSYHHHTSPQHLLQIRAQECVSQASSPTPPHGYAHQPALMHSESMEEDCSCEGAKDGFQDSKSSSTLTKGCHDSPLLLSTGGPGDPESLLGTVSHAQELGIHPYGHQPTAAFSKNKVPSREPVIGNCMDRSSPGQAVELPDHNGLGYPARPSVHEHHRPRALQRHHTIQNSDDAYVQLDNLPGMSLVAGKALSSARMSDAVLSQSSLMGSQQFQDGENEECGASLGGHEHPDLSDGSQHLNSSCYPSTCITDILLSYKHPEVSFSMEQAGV

For orientation: pIC50 means the IC50 on a negative log10 scale, so that one unit is a factor of ten. Consider `COc1cc(-n2cnc3cc(-c4cnn(C)c4)ccc32)cc(OC)c1C(=O)N1CC(N(C)C)C1` [compound 185, [2,6-dimethoxy-4-[5-(1-methylpyrazol-4-yl)benzimidazol-1-yl]phenyl]-[3-(dimethylamino)azetidin-1-yl]methanone], for which the pIC50 was less than 6.30 at SIK3, 6.30 to 7.00 at SIK1 and 6.30 to 7.00 on SIK2.

On to `COc1cc(-n2cnc3cc(-c4cnn(C)c4)ccc32)cc(OC)c1C(=O)N1CC(OCc2ccccc2)C1` [compound 186, (3-benzyloxyazetidin-1-yl)-[2,6-dimethoxy-4-[5-(1-methylpyrazol-4-yl)benzimidazol-1-yl]phenyl]methanone], for which the pIC50 at SIK3 was 6.30 to 7.00; at SIK1, 7.00 to 8.00; at SIK2, 6.30 to 7.00.

For the compound `COc1cc(-n2cnc3cc(-c4cnn(C)c4)ccc32)cc(OC)c1C(=O)N1CCC1c1ccccc1` (stereo not drawn) [compound 187, [2,6-dimethoxy-4-[5-(1-methylpyrazol-4-yl)benzimidazol-1-yl]phenyl]-(2-phenylazetidin-1-yl)methanone], the pIC50 on SIK3, on SIK1 and on SIK2 was less than 6.30 each time.

`COc1cc(-n2cnc3cc(-c4cnn(C)c4)ccc32)cc(OC)c1C(=O)N1CC(N2CCOCC2)C1` [compound 188, [2,6-dimethoxy-4-[5-(1-methylpyrazol-4-yl)benzimidazol-1-yl]phenyl]-(3-morpholinoazetidin-1-yl)methanone]: the pIC50 against SIK3, at SIK1 and on SIK2 was less than 6.30 each time.

`COc1cc(-n2cnc3cc(-c4cnn(C)c4)ccc32)cc(OC)c1C(=O)N1C(C)CC1(C)C` (stereo not drawn) [compound 189, [2,6-dimethoxy-4-[5-(1-methylpyrazol-4-yl)benzimidazol-1-yl]phenyl]-(2,2,4-trimethylazetidin-1-yl)methanone]: the pIC50 at SIK3, at SIK1 and on SIK2 was less than 6.30 in each case.

`COc1cc(-n2cnc3cc(-c4cnn(C)c4)ccc32)cc(OC)c1C(=O)N1CC(OC)C1` [compound 190, [2,6-dimethoxy-4-[5-(1-methylpyrazol-4-yl)benzimidazol-1-yl]phenyl]-(3-methoxyazetidin-1-yl)methanone]: the pIC50 against SIK3 was 6.30 to 7.00; on SIK1, 7.00 to 8.00; on SIK2, 7.00 to 8.00.

In the case of `COc1cc(-n2cnc3cc(-c4cnn(C)c4)ccc32)cc(OC)c1C(=O)N1CC(C2CCOCC2)C1` [compound 191, [2,6-dimethoxy-4-[5-(1-methylpyrazol-4-yl)benzimidazol-1-yl]phenyl]-(3-tetrahydropyran-4-ylazetidin-1-yl)methanone], the pIC50 against SIK3, at SIK1 and on SIK2 was 6.30 to 7.00 each time.

As for `COc1cc(-n2cnc3cc(-c4cnn(C)c4)ccc32)cc(OC)c1C(=O)N1CCC1CO` (stereo not drawn) [compound 193, [2,6-dimethoxy-4-[5-(1-methylpyrazol-4-yl)benzimidazol-1-yl]phenyl]-[2-(hydroxymethyl)azetidin-1-yl]methanone], the pIC50 at SIK3, at SIK1 and on SIK2 was less than 6.30 each time.

As to `COc1cc(-n2cnc3cc(-c4cnn(C)c4)ccc32)cc(OC)c1C(=O)N1CC2(COC2)C1` [compound 194], the pIC50 against SIK3 is 6.30 to 7.00; at SIK1, 6.30 to 7.00; at SIK2, 7.00 to 8.00.

Turning to `COc1cc(-n2cnc3cc(-c4cnn(C)c4)ccc32)cc(OC)c1C(=O)N1CC2(C1)CS(=O)(=O)C2` [compound 195, [2,6-dimethoxy-4-[5-(1-methylpyrazol-4-yl)benzimidazol-1-yl]phenyl]-(2,2-dioxo-2λ^6-thia-6-azaspiro[3.3]heptan-6-yl)methanone], the pIC50 against SIK3, on SIK1 and at SIK2 was 6.30 to 7.00 each time.

For `COc1cc(-n2cnc3cc(-c4cnn(C)c4)ccc32)cc(OC)c1C(=O)N1CCC(c2ccccc2)C1` (stereo not drawn) [compound 196, [2,6-dimethoxy-4-[5-(1-methylpyrazol-4-yl)benzimidazol-1-yl]phenyl]-(3-phenylpyrrolidin-1-yl)methanone], the pIC50 against SIK3, at SIK1 and at SIK2 was less than 6.30 in each case.

`COc1cc(-n2cnc3cc(-c4cnn(C)c4)ccc32)cc(OC)c1C(=O)N1CCC(F)CC1` [compound 197, [2,6-dimetlioxy-4-[5-(1-methylpyrazol-4-yl)benzimidazol-1-yl]phenyl]-(4-fluoro-1-piperidyl)methanone]: the pIC50 on SIK3, at SIK1 and on SIK2 was less than 6.30 each time.

In the case of `COc1cc(-n2cnc3cc(-c4cnn(C)c4)ccc32)cc(OC)c1C(=O)N1CCC(OC(F)(F)F)CC1` [compound 198, [2,6-dimethoxy-4-[5-(1-methylpyrazol-4-yl)benzimidazol-1-yl]phenyl]-[4-(trifluoromethoxy)-1-piperidyl]methanone], the figures for the pIC50 against SIK3, at SIK1 and at SIK2 were 6.30 to 7.00, 6.30 to 7.00 and less than 6.30, respectively.

Regarding `COc1cc(-n2cnc3cc(-c4cnn(C)c4)ccc32)cc(OC(F)F)c1C(=O)NC(C)(C)C` [compound 199, N-tert-butyl-2-(difluoromethoxy)-6-methoxy-4-[5-(1-methylpyrazol-4-yl)benzimidazol-1-yl]benzamide], the pIC50 at SIK3, at SIK1 and on SIK2 was less than 6.30 in each case.

`COc1cc(-c2cnc3cc(-c4cnn(C)c4)ccn23)cc(OC)c1C(=O)NC(C(C)C)C(F)(F)F` (stereo not drawn) [compound 200]: the pIC50 on SIK3, at SIK1 and on SIK2 was 7.00 to 8.00 each time.

With `COc1cc(-c2cnc3cc(-c4cnn(C)c4)ccn23)cc(OC)c1C(=O)N1CCC(F)(F)C1` [compound 211, (3,3-difluoropyrrolidin-1-yl)-[2,6-dimethoxy-4-[7-(1-methylpyrazol-4-yl)imidazo[1,2-a]pyridin-3-yl]phenyl]methanone], the pIC50 on SIK3, at SIK1 and at SIK2 was 7.00 to 8.00 each time.

As for `COc1cc(-c2cnc3cc(-c4cnn(C)c4)ccn23)cc(OC)c1C(=O)N1CCC(F)(F)CC1` [compound 212, (4,4-difluoro-1-piperidyl)-[2,6-dimethoxy-4-[7-(1-methylpyrazol-4-yl)imidazo[1,2-a]pyridin-3-yl]phenyl]methanone], the pIC50 at SIK3 was 6.30 to 7.00; at SIK1, 6.30 to 7.00; on SIK2, 7.00 to 8.00.

Consider `COc1cc(-n2cnc3cc(-c4cnn(C)c4)ccc32)cc(OC)c1C(=O)N1CC(C)(O)C1` [compound 217, [2,6-dimethoxy-4-[5-(1-methylpyrazol-4-yl)benzimidazol-1-yl]phenyl]-(3-hydroxy-3-methyl-azetidin-1-yl)methanone], for which the pIC50 against SIK3, at SIK1 and at SIK2 was 7.00 to 8.00 throughout.

Consider `CCC1(O)CN(C(=O)c2c(OC)cc(-n3cnc4cc(-c5cnn(C)c5)ccc43)cc2OC)C1` [compound 218, [2,6-dimethoxy-4-[5-(1-methylpyrazol-4-yl)benzimidazol-1-yl]phenyl]-(3-ethyl-3-hydroxy-azetidin-1-yl)methanone], for which the figures for the pIC50 at SIK3, at SIK1 and at SIK2 were 6.30 to 7.00, 7.00 to 8.00 and 7.00 to 8.00, respectively.
